{
  "source": "patent US20250194649A1",
  "about": "“FATTY ACID AMIDES AND THEIR USE AS FLAVOR MODIFIERS” (Firmenich SA, priority 2022, published 2025)",
  "type_in_all_cases": "in vivo",
  "key": {"[1]": {"test": "Sensory panel (8 experts): sweet intensity of sub-threshold sweetener solutions with and without R1 at 50 ppm", "settings": "for Sweet intensity of the compound solution: without R1", "description": "A panel consisting of 8 experts evaluating R1 adding in various sweeteners at 50 ppm for their sweet properties (0 denoted no sweet taste, 10 denoted too strong sweet taste). The sweetener dosage were designed under their sweetness threshold in water."}, "[2]": {"test": "Sensory panel (8 experts): sample added to reference water solution containing 4% sucrose", "settings": "dosage 0.2 ppm; scale −5 (strong masking) to 5 (strong enhancing), 0 = reference 4% sucrose in water", "description": "(§1) A panel consisting of 8 experts evaluating the samples adding in reference at 0.2 or 5 ppm for their sensory properties (sweet, licorice, sweet lingering) on a scale of −5 to 5 (−5 denoted strong masking effect and 5 denoted strong enhancing effect, 0 being the intensity of a reference water solution containing 4% sucrose, or 0.02% SG95. The results are shown in Table 2."}, "[3]": {"test": "Sensory panel (8 experts): sample added to reference water solution containing 0.02% SG95 (stevia extract)", "settings": "dosage 0.2 ppm; scale −5 to 5, 0 = reference 0.02% SG95 in water", "description": "as §1"}, "[4]": {"settings": "compound 2.5 ppm in water, scale 0 to 10"}, "[5]": {"settings": "compound 2.5 ppm plus R1 (Sichuan pepper oil) 50 ppm, scale 0 to 10"}, "[6]": {"settings": "compound 10 ppm in water, scale 0 (no sweet taste) to 10 (too strong sweet taste)"}, "[7]": {"settings": "compound 10 ppm plus R1 (Sichuan pepper oil) 50 ppm, scale 0 to 10"}},
  "data": [
    {"compound": "C=C1C[C@@]23CC[C@H]4[C@@](C)(CCC[C@@]4(C)C(=O)O[C@@H]4O[C@H](CO)[C@@H](O)[C@H](O)[C@H]4O)[C@@H]2CC[C@]1(O[C@@H]1O[C@H](CO)[C@@H](O)[C@H](O)[C@H]1O)C3", "note": "[Rubusoside, rubusoside]", "values": [
      {"measurement": "Sweet intensity of the compound solution", "setting": "[1]; compound 5 ppm in water, scale 0 to 10", "value": 0},
      {"measurement": "Sweet intensity of the compound and R1 blend solution", "setting": "[1]; compound 5 ppm plus R1 (Sichuan pepper oil) 50 ppm, scale 0 to 10", "value": 1.6}
    ]},
    {"compound": "malonyl rebaudioside E [Malonyl Reb E]", "values": [
      {"measurement": "Sweet intensity of the compound solution", "setting": "[1]; [4]", "value": 0.13},
      {"measurement": "Sweet intensity of the compound and R1 blend solution", "setting": "[1]; [5]", "value": 1.5}
    ]},
    {"compound": "malonyl rebaudioside A [Malonyl Reb A]", "values": [
      {"measurement": "Sweet intensity of the compound solution", "setting": "[1]; [4]", "value": 0},
      {"measurement": "Sweet intensity of the compound and R1 blend solution", "setting": "[1]; [5]", "value": 1.3}
    ]},
    {"compound": "O=C1C[C@@H](c2ccc(O)cc2)Oc2cc(O)cc(O)c21", "note": "[Naringenin, naringenin]", "values": [
      {"measurement": "Sweet intensity of the compound solution", "setting": "[1]; [6]", "value": 0.13},
      {"measurement": "Sweet intensity of the compound and R1 blend solution", "setting": "[1]; [7]", "value": 1.3}
    ]},
    {"compound": "COc1cc([C@@H]2CC(=O)c3c(O)cc(O)cc3O2)ccc1O", "note": "[Homoeriodictyol, homoeriodictyol]", "values": [
      {"measurement": "Sweet intensity of the compound solution", "setting": "[1]; [6]", "value": 0},
      {"measurement": "Sweet intensity of the compound and R1 blend solution", "setting": "[1]; [7]", "value": 1.7}
    ]},
    {"compound": "C[C@H](CC[C@@H](O[C@@H]1O[C@H](CO[C@@H]2O[C@H](CO)[C@@H](O)[C@H](O)[C@H]2O)[C@@H](O)[C@H](O)[C@H]1O[C@@H]1O[C@H](CO)[C@@H](O)[C@H](O)[C@H]1O)C(C)(C)O)[C@H]1CC[C@@]2(C)[C@@H]3CC=C4[C@@H](CC[C@H](O[C@@H]5O[C@H](CO[C@@H]6O[C@H](CO)[C@@H](O)[C@H](O)[C@H]6O)[C@@H](O)[C@H](O)[C@H]5O)C4(C)C)[C@]3(C)[C@H](O)C[C@]12C", "note": "[Mogroside V, mogroside V]", "values": [
      {"measurement": "Sweet intensity of the compound solution", "setting": "[1]; [4]", "value": 0.08},
      {"measurement": "Sweet intensity of the compound and R1 blend solution", "setting": "[1]; [5]", "value": 1.6}
    ]},
    {"compound": "C/C=C/C=C/C=C\\CC/C=C/C(=O)NCC(C)(C)O", "note": "[Compound S1, Hydroxy-α-sanshool]", "values": [
      {"measurement": "ΔSweet intensity to sucrose solution", "setting": "[2]", "value": "+0.3"},
      {"measurement": "ΔLicorice intensity to stevia extract solution", "setting": "[3]", "value": "+0.3"},
      {"measurement": "ΔLingering intensity to stevia extract solution", "setting": "[3]", "value": "−0.8"},
      {"measurement": "ΔSweet intensity tostevia extract solution", "setting": "[3]", "value": "+0.1"}
    ]},
    {"compound": "O=C1C[C@@H](c2ccc(O)c(O)c2)Oc2cc(O)cc(O)c21", "note": "[Eriodictyol, eriodictyol]", "values": [
      {"measurement": "Sweet intensity of the compound solution", "setting": "[1]; [6]", "value": 0.03},
      {"measurement": "Sweet intensity of the compound and R1 blend solution", "setting": "[1]; [7]", "value": 1.7}
    ]},
    {"compound": "C/C=C/C=C/C=C/CC/C=C/C(=O)NCC(C)(C)O", "note": "[Compound S3, Hydroxy-β-sanshool]", "values": [
      {"measurement": "ΔSweet intensity to sucrose solution", "setting": "[2]", "value": "+0.5"},
      {"measurement": "ΔLicorice intensity to stevia extract solution", "setting": "[3]", "value": 0},
      {"measurement": "ΔLingering intensity to stevia extract solution", "setting": "[3]", "value": "−0.4"},
      {"measurement": "ΔSweet intensity tostevia extract solution", "setting": "[3]", "value": "+0.2"}
    ]},
    {"compound": "COc1ccc(CCC(=O)c2c(O)cc(O[C@@H]3O[C@H](CO)[C@@H](O)[C@H](O)[C@H]3O[C@@H]3O[C@@H](C)[C@H](O)[C@@H](O)[C@H]3O)cc2O)cc1O", "note": "[NHDC, neohesperidin dihydrochalcone]", "values": [
      {"measurement": "Sweet intensity of the compound solution", "setting": "[1]; compound 0.5 ppm in water, scale 0 to 10", "value": 0.06},
      {"measurement": "Sweet intensity of the compound and R1 blend solution", "setting": "[1]; compound 0.5 ppm plus R1 (Sichuan pepper oil) 50 ppm, scale 0 to 10", "value": 1.1}
    ]},
    {"compound": "COc1ccc(CCC(=O)c2c(O)cc(O[C@@H]3O[C@H](CO)[C@@H](O)[C@H](O)[C@H]3O)cc2O)cc1O", "note": "[hesperetin dihydrochalcone 4′-O-glucoside]", "values": [
      {"measurement": "Sweet intensity of the compound solution", "setting": "[1]; [4]", "value": 0.04},
      {"measurement": "Sweet intensity of the compound and R1 blend solution", "setting": "[1]; [5]", "value": 1.9}
    ]},
    {"compound": "α-mogroside IV", "values": [
      {"measurement": "Sweet intensity of the compound solution", "setting": "[1]; [4]", "value": 0.13},
      {"measurement": "Sweet intensity of the compound and R1 blend solution", "setting": "[1]; [5]", "value": 1.8}
    ]},
    {"compound": "hesperidin dihydrochalcone", "values": [
      {"measurement": "Sweet intensity of the compound solution", "setting": "[1]; [6]", "value": 0.09},
      {"measurement": "Sweet intensity of the compound and R1 blend solution", "setting": "[1]; [7]", "value": 1.3}
    ]},
    {"compound": "O=C(CCc1ccc(O)cc1)c1c(O)cc(O[C@@H]2O[C@H](CO)[C@@H](O)[C@H](O)[C@H]2O)cc1O", "note": "[Trilobatin, trilobatin]", "values": [
      {"measurement": "Sweet intensity of the compound solution", "setting": "[1]; [6]", "value": 0},
      {"measurement": "Sweet intensity of the compound and R1 blend solution", "setting": "[1]; [7]", "value": 1.5}
    ]},
    {"compound": "hydroxy-γ-sanshool [Compound S2]", "values": [
      {"measurement": "ΔSweet intensity to sucrose solution", "setting": "[2]", "value": "+0.7"},
      {"measurement": "ΔLicorice intensity to stevia extract solution", "setting": "[3]", "value": "−0.5"},
      {"measurement": "ΔLingering intensity to stevia extract solution", "setting": "[3]", "value": "−0.8"},
      {"measurement": "ΔSweet intensity tostevia extract solution", "setting": "[3]", "value": "+0.3"}
    ]},
    {"compound": "C=C1C[C@@]23CC[C@H]4[C@@](C)(CCC[C@@]4(C)C(=O)O[C@@H]4O[C@H](CO)[C@@H](O)[C@H](O)[C@H]4O)[C@@H]2CC[C@]1(O[C@@H]1O[C@H](CO)[C@@H](O)[C@H](O[C@@H]2O[C@H](CO)[C@@H](O)[C@H](O)[C@H]2O)[C@H]1O[C@@H]1O[C@H](CO)[C@@H](O)[C@H](O)[C@H]1O)C3", "note": "[RebA, Rebaudioside A]", "values": [
      {"measurement": "Sweet intensity of the compound solution", "setting": "[1]; [4]", "value": 0.19},
      {"measurement": "Sweet intensity of the compound and R1 blend solution", "setting": "[1]; [5]", "value": 1.9}
    ]},
    {"compound": "C=C1C[C@@]23CC[C@H]4[C@@](C)(CCC[C@@]4(C)C(=O)O[C@@H]4O[C@H](CO)[C@@H](O)[C@H](O)[C@H]4O[C@@H]4O[C@H](CO)[C@@H](O)[C@H](O)[C@H]4O)[C@@H]2CC[C@]1(O[C@@H]1O[C@H](CO)[C@@H](O)[C@H](O)[C@H]1O[C@@H]1O[C@H](CO)[C@@H](O)[C@H](O)[C@H]1O)C3", "note": "[Reb E, Rebaudioside E]", "values": [
      {"measurement": "Sweet intensity of the compound solution", "setting": "[1]; [4]", "value": 0.06},
      {"measurement": "Sweet intensity of the compound and R1 blend solution", "setting": "[1]; [5]", "value": 1.5}
    ]}
  ]
}
